# Reference: US5948798A, “Pyridiniminyl-1,2-benzisoxazoles and -benzisothiazoles” (Hoechst Marion Roussel, Inc., priority 1997, dated 1999)
# Counter-ions that a name gives are not always drawn. Like-named read-outs stand apart in the source and are kept apart here.
# Key:
# [1] = target: T1, Monoamine Oxidase A (Rattus norvegicus, UniProt P21396); assay: in vitro inhibition of monoamine oxidase assay (monoamine oxidase A); format: biochemical, rat (male Wistar, whole brain minus cerebellum); conditions: rat brain mitochondria, [3H]-5-hydroxytryptamine 200 μM, pH 7.4, 37° C., 30 min; log-probit
# T1 construct: serves as the tissue source for mitochondrial monoamine oxidase; from tissue; host or cells: male Wistar rat whole brain minus cerebellum, 18,000 g pellet (P2)
# T1 sequence (P21396 1-526): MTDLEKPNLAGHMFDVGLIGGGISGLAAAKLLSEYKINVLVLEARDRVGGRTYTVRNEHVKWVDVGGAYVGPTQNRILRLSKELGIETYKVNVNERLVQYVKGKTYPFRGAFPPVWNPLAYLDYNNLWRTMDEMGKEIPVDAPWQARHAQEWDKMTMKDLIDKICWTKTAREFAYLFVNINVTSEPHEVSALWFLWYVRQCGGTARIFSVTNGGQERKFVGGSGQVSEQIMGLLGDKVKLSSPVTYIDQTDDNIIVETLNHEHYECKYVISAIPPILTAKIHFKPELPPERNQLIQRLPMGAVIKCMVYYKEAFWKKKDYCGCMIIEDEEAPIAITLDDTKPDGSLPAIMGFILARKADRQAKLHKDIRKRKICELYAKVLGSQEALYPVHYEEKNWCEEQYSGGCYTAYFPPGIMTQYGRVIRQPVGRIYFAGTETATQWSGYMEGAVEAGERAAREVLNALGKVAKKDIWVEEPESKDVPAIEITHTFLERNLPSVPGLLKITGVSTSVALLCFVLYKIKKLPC
# Excerpt: (§1) In this assay, a modification of an assay described by M. V. Kindt, et al., Europ.
# (§2) Male Wistar rats weighing 150-250 grams were sacrificed and the brains rapidly removed.
# [2] = target: T2, Monoamine Oxidase B (Rattus norvegicus, UniProt P19643); assay: in vitro inhibition of monoamine oxidase assay (monoamine oxidase B); format: biochemical, rat (male Wistar, whole brain minus cerebellum); conditions: rat brain mitochondria, [14C]-phenethylamine 200 μM, pH 7.4, 37° C., 30 min; log-probit
# T2 construct: serves as the tissue source for mitochondrial monoamine oxidase; from tissue; host or cells: male Wistar rat whole brain minus cerebellum, 18,000 g pellet (P2)
# T2 sequence (P19643 1-520): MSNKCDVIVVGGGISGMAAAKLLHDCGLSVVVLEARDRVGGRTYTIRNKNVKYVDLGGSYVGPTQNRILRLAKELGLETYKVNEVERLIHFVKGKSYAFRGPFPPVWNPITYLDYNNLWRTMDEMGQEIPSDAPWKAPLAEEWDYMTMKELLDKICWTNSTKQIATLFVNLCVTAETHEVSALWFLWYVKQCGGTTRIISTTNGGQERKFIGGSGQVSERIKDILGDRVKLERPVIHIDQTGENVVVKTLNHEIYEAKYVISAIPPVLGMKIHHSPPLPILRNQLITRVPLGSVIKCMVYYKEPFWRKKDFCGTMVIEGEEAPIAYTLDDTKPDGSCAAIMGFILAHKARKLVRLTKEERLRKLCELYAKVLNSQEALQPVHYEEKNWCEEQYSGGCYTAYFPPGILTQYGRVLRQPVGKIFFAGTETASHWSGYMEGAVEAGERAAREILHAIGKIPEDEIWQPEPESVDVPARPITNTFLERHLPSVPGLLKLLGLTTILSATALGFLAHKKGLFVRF
# Excerpt: as §1, §2
# [3] = target: T3, Acetylcholinesterase (Rattus norvegicus, UniProt P37136); assay: in vitro inhibition of acetylcholinesterase assay; format: biochemical, rat (male Wistar, corpora striata)
# T3 construct: corpora striata dissected free, weighted and homogenized in 19 volumes; from tissue; host or cells: male Wistar rat corpora striata, homogenate
# Description: 1. 0.05M Phosphate Buffer (pH 7.2)
# A solution of monobasic sodium phosphate monohydrate (6.85 g) in distilled water (100 mL) is added to a solution of dibasic sodium phosphate heptahydrate (13.4 g) and distilled water (100 mL) until a pH of 7.2 was attained. The solution was diluted 1 to 10 with distilled water.
# 3. 5,5-Dithiobisnitrobenzoic acid in Buffer
# The 0.05M Phosphate Buffer (pH 7.2) was added to 5.5-dithiobisnitrobenzoic acid to a total volume of 100 mL. i.e., a quantity sufficient (gs) to 100 mL.
# 4. Stock Solution of Drug
# A 2 millimolar stock solution of the test drug is prepared in a quantity sufficient of either acetic acid or dimethyl sulfoxide to volume with 5,5-Dithiobisnitrobenzene Acid in Buffer. Stock Solution of Drug is serially diluted (1:10) so that the final cuvette concentration is 10^-4 molar.
# Male Wistar rats are decapitated, brains rapidly removed, corpora striata dissected free, weighted and homogenized in 19 volumes (approximately 7 mg protein/mL) of 0.05M phosphate Buffer (pH 7.2) using a Potter-Elvehjem homogenizer. A 25 μl aliquot of this suspension is added to 1 mL of the vehicle or various concentrations of the test drug and preincubated for 10 minutes at 37° C. Enzyme activity is measured with a Beckman DU-50 spectrophotometer with the following software and instrument settings:
# 6. Cuvettes--2 mL cuvettes using auto 6-sampler;
# 7. Blank--1 for each substrate concentration;
# 8. Interval time--15 seconds (15 or 30 seconds for kinetics);
# 9. Total time--5 minutes (5 to 10 minutes for kinetics);
# 13. Results--yes (gives slope); and
# Reagents are added to the blank and sample cuvettes as follows: […]
# Blank 0.8 mL 5.5-Dithiobisnitrobenzoic Acid
# 0.8 mL Substrate in Buffer
# 2. Control 0.8 mL 5.5-Dithiobisnitrobenzoic Acid/Enzyme
# 3. Drug 0.8 mL 5.5-Dithiobisnitrobenzoic Acid/Drug/Enzyme
# Blank values are determined for each run to control for non-enzymatic hydrolysis of substrate and these values are automatically subtracted by the Kindata program available on kinetics soft-pac module. This program also calculates the rate of absorbance change for each cuvette.
# Substrate concentration is 10 millimolar diluted 1:2 in assay yielding final concentration of 5 millimolar. 5,5-Dithiobisnitrobenzoic acid concentration is 0.5 millimolar yielding 0.25 millimolar final concentration. [formula]
# IC50 values are calculated from log-probit analysis
# T3 sequence (P37136 32-614): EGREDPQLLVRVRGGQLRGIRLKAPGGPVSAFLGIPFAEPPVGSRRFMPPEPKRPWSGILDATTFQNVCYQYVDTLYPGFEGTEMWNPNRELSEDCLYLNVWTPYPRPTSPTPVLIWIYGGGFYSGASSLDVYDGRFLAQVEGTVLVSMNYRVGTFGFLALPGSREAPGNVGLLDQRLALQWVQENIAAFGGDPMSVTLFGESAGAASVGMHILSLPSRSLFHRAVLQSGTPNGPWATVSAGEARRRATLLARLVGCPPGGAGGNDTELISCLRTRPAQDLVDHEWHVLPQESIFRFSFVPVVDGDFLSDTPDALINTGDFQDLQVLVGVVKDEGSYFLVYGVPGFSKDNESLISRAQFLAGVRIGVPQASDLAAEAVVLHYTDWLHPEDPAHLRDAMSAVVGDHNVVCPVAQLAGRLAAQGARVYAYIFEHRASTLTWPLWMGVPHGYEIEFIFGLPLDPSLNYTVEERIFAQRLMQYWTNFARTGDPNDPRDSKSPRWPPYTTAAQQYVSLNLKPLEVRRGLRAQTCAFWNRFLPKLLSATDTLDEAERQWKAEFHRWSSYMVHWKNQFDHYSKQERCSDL
SMILES,IC50 [1] [µM],IC50 [2] [µM],IC50 [3] [µM],"IC50 ([3]; rat corpora striata homogenate, pH 7.2, acetylthiocholine 5 mM final, 10 min preincubation at 37° C., log-probit, read-out: Inhibition of Acetylcholinesterase Activity IC50) [µM]"
"c1ccc(CCn2ccc(=Nc3noc4ccccc34)cc2)cc1 [3-[1-(2-Phenylethyl)-N-4(1H)-pyridiniminyl]-1,2-benzisoxazole hydrobromide]",3,15.9,–,–
"c1ccc(CCCn2ccc(=Nc3noc4ccccc34)cc2)cc1 [3-[1-(3-Phenylpropyl)-N-4(1H)-pyridiniminyl]-1,2-benzisoxazole hydrobromide]",–,–,0.65,–
"Fc1ccc(Cn2ccc(=Nc3noc4ccccc34)cc2)cc1 [3-[1-(4-Fluorophenyl)methyl-N-4(1H)-pyridiniminyl]-1,2-benzisoxazole hydrobromide]",–,–,–,0.44
"c1ccc(Cn2ccc(=Nc3noc4ccccc34)cc2)cc1 [3-[1-Phenylmethyl-N-4(1H)-pyridiniminyl]-1,2-benzisoxazole hydrobromide]",9,33.7,0.28,–
"CCCn1ccc(=Nc2noc3cc(Cl)ccc23)cc1 [6-Chloro-3-]1-propyl-N-4(1H)pyridiniminyl]-1,2-benzisoxazole hydrochloride]",1.65,27.2,–,–
"COc1ccc2c(N=c3ccn(Cc4ccccc4)cc3)noc2c1 [6-Methoxy-3-[1-phenylmethyl-N-4(1H)-pyridiniminyl]-1,2-benzisoxazole hydrobromide]",3,25.2,0.09,–
